From US20210230313A1, “SULFUR-CONTAINING GLYCANS AND POLYSACCHARIDES AND METHODS OF CHEMOENZYMATIC SYNTHESIS THEREOF” (priority 2018, published 2021)

Columns and labels:
PmHS-B = assay: Radiochemical incorporation assay, co-polymerization with UDP-[3H]GlcA, paper chromatography; assay type: biochemical, Pasteurella multocida; conditions: GAG synthase PmHS-B 1 mg/ml; test UDP-sugar 0.5 mM; UDP-[3H]GlcA 0.08 mM; 30° C., 5.5 hours; * = significant thio-sugar incorporation into polymer
Description: (§1) For polymerization tests, for example, the various oligosaccharide acceptors were incubated with two types of UDP-sugars at 2 mM as noted under the same conditions as the single sugar extensions above. Radioactive UDP-sugars (e.g., UDP-[^3H]GlcA) were used to monitor co-polymerization reactions with the thiosugar-donors separated by various modes of chromatography. The general reaction catalyzed by a GAG synthase in these tests is:
(§2) n UDP-4S-HexNAc+n UDP-[^3H]GlcA+acceptor-->2n UDP+[4S-HexNAc+UDP-[^3H]GlcA]n-acceptor
(§3) where HexNAc is GlcNAc, GalNAc, or another sugar or sugar derivative. Reactions used radioactive UDP-GlcA (0.08 mM final; 0.1 microCi ^3H) and the authentic UDP-sugars (a positive control) or their thio-analogs (0.5 mM final) with a GAG synthase (1 mg/ml) in neutral pH buffer (50 mM Hepes, pH 7.2) with divalent cation (1 mM Mn^2+) at 30° C. for 5.5 hours (note: the HA [PmHAS] and chondroitin [PmCS] synthase reactions also employed the stabilizer 1M ethylene glycol). The reactions were quenched (2% SDS detergent), and analyzed by paper chromatography. The small radioactive UDP-sugar precursors are polymerized by the synthase, resulting in larger products (stay at the origin of the paper; any unused precursor migrates down the paper); such data is shown in Table 3.
(§4) Chimeric enzymes that included differing portions of both PmHS1 (GenBank Accession #AAL84702) and PmHS2 (GenBank Accession #AAQ55109) were created and tested for their ability to synthesize polymers from the sulfur-containing UDP-4-S-GlcNAc. As shown below in Table 2, the corresponding numbers describe the original residue numbers of the source parental synthase sequence as noted.
(§5) Overall, the Chimeric B construct (PmHS-B) appears to be the best catalyst tested thus far for incorporating 4-S-GlcNAc into a heparosan-like S-linked polymer.

PmHS-D = assay: as above; assay type: biochemical, Pasteurella multocida; conditions: GAG synthase PmHS-D 1 mg/ml; test UDP-sugar 0.5 mM; UDP-[3H]GlcA 0.08 mM; 30° C., 5.5 hours
Description: as §1, §2, §3, §4, §5

PmHS-G = assay: as above; assay type: biochemical, Pasteurella multocida; conditions: GAG synthase PmHS-G 1 mg/ml; test UDP-sugar 0.5 mM; UDP-[3H]GlcA 0.08 mM; 30° C., 5.5 hours; * = significant thio-sugar incorporation into polymer
Description: as §1, §2, §3, §4, §5

PmHS-I = assay: as above; assay type: biochemical, Pasteurella multocida; conditions: GAG synthase PmHS-I 1 mg/ml; test UDP-sugar 0.5 mM; UDP-[3H]GlcA 0.08 mM; 30° C., 5.5 hours
Description: as §1, §2, §3, §4, §5

PmHS-J = assay: as above; assay type: biochemical, Pasteurella multocida; conditions: GAG synthase PmHS-J 1 mg/ml; test UDP-sugar 0.5 mM; UDP-[3H]GlcA 0.08 mM; 30° C., 5.5 hours; * = significant thio-sugar incorporation into polymer
Description: as §1, §2, §3, §4, §5

PmHS-A = assay: as above; assay type: biochemical, Pasteurella multocida; conditions: GAG synthase PmHS-A 1 mg/ml; test UDP-sugar 0.5 mM; UDP-[3H]GlcA 0.08 mM; 30° C., 5.5 hours
Description: as §1, §2, §3, §4, §5

[1] = biological target: T1, bacterial heparin lyase III (Pedobacter heparinus, UniProt Q59289); assay: Heparin lyase III challenge of HEP polymers, PAGE analysis; assay type: biochemical; conditions: 50 mM ammonium acetate, pH 7.0, 20 h at 30° C., loss of signal on PAGE (FIG. 8)
T1 sequence (Q59289 25-659): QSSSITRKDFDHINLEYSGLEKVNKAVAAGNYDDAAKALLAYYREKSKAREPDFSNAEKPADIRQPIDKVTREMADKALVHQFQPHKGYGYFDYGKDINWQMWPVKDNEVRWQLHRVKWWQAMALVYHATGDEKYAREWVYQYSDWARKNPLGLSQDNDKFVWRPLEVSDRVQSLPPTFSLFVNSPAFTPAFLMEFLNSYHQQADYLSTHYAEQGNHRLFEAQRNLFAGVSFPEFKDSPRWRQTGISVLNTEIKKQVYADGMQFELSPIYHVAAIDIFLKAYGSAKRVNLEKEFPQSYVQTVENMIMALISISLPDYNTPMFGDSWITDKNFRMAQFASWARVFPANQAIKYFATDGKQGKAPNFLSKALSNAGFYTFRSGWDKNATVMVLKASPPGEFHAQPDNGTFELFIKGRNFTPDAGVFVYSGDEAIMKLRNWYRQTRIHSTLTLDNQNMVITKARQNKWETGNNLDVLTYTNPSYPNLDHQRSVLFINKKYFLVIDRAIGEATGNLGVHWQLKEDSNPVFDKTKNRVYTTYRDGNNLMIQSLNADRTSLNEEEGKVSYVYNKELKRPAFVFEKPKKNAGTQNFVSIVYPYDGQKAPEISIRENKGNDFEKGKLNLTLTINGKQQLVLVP
Description: Polymerization reactions and PAGE analysis. HEP trisaccharide (30 ng/ul) was incubated with 10 mM […] and either 10 mM 4-thio- or authentic UDP-GlcNAc, with PmHS-G (0.5 mg/ml), 1 mM MnCl2, and 50 mM Hepes, pH 7.2, for 20 h at 30° C. The reactions were then diluted in water and split into two aliquots, (i) a untreated control (−) and (ii) a heparin lyase III treated in 50 mM ammonium acetate, pH 7.0, for 20 h at 30° C. (+). The samples were then analyzed on a 6% 1×TBE PAGE (250 V, 15 min) and stained with 0.05% Alcian Blue followed by silver staining (BioRad Silver Stain kit).
Polymerization reactions producing longer HEP chains with either native (4-OH) or analog (4-SH) donors were analyzed for size on PAGE gels and stained. The gel depicts the polysaccharides made with both natural UDP-donors (native HEP) or by using the thio-GlcNAc analog and UDP-GlcA to form Hemi-A HEP.
Both polymers were challenged with bacterial heparin lyase III (+lanes). […] This finding is predicted as the enzyme digests the C—O—C glycosidic link that still exists in both types of HEP species.

Compound | 3H radioactivity at the origin (dpm) (PmHS-B) | 3H radioactivity at the origin (dpm) (PmHS-D) | 3H radioactivity at the origin (dpm) (PmHS-G) | 3H radioactivity at the origin (dpm) (PmHS-I) | 3H radioactivity at the origin (dpm) (PmHS-J) | 3H radioactivity at the origin (dpm) (PmHS-A) | Susceptibility to digestion by bacterial heparin lyase [1]
CC(=O)N[C@H]1[C@@H](OP(=O)(O)OP(=O)(O)OC[C@H]2O[C@@H](n3ccc(=O)[nH]c3=O)[C@H](O)[C@@H]2O)O[C@H](CO)[C@@H](S)[C@@H]1O [UDP-4S-GlcNAc, UDP-4-SH-GlcNAc] | 800 * dpm | 42 dpm | 510 * dpm | 42 dpm | 480 * dpm | – | –
CC(=O)N[C@H]1[C@@H](OP(=O)(O)OP(=O)(O)OC[C@H]2O[C@@H](n3ccc(=O)[nH]c3=O)[C@H](O)[C@@H]2O)O[C@H](CO)[C@@H](O)[C@@H]1O [UDP-GlcNAc, UDP-N-acetylglucosamine] | 9,020 dpm | 4,140 dpm | 8,900 dpm | 3,900 dpm | 12,200 dpm | 9,230 dpm | –
(-4-GlcA-1-beta-S-4-GlcNAc-1-alpha-O)n [Hemi-A HEP] | – | – | – | – | – | – | sensitive to digestion
